The test system of data set [1] is PC-3. Put plainly: Antiproliferative activity against human PC3 cells assessed as inhibition of cell growth measured after 72 hrs by MTT assay. It is filed as functional. (Tetrazolium assays rely on reduction of a dye to a coloured formazan, in cell work by metabolically active cells.)
Data set [2] in a line: Metabolic stability in human liver microsomes assessed as compound degradation at 10 uM measured after 15 mins by HPLC method. The note with it: read-out: Drug degradation. It counts as ADME, Microsome. For orientation: Liver microsomes are a subcellular fraction often used to study metabolism.
The nature of data set [3]: Metabolic stability in human liver microsomes assessed as compound degradation at 10 uM measured after 30 mins by HPLC method. It is filed as ADME, Microsome. Conditions: read-out: Drug degradation.
Data set [4] deals with PC-3. Kind of data set: Antiproliferative activity against human PC3 cells assessed as inhibition of cell proliferation at 2 uM measured after 48 hrs by MTT assay. It is filed as functional, cell-based.
Data set [5] deals with OVCAR-3. Put plainly: Antiproliferative activity against human OVCAR-3 cells assessed as inhibition of cell proliferation at 2 uM measured after 48 hrs by MTT assay. It is filed as functional, cell-based.
The subject of data set [6] is PANC-1. Put plainly: Antiproliferative activity against human PANC-1 cells assessed as inhibition of cell proliferation at 2 uM measured after 48 hrs by MTT assay. It is filed as functional, cell-based.
Data set [7] relates to OVCAR-3. Put plainly: Antiproliferative activity against human OVCAR-3 cells assessed as inhibition of cell proliferation at 15 uM measured after 48 hrs by MTT assay. It is filed as functional, cell-based.
The subject of data set [8] is PANC-1. Kind of data set: Antiproliferative activity against human PANC-1 cells assessed as inhibition of cell proliferation at 15 uM measured after 48 hrs by MTT assay. It counts as functional, cell-based.
The test system of data set [9] is PC-3. Put plainly: Antiproliferative activity against human PC3 cells assessed as cellular metabolic activity at 15 uM measured after 48 hrs by MTT assay. It counts as functional.
For data set [10], the system named is DU-145. Put plainly: Antiproliferative activity against human DU-145 cells assessed as inhibition of cell proliferation measured after 72 hrs by MTT assay. It is filed as functional, cell-based.
Data set [11] concerns LNCaP. Put plainly: Antiproliferative activity against human LNCaP cells assessed as inhibition of cell proliferation measured after 72 hrs by MTT assay. It counts as functional, cell-based.
For data set [12], the system named is LAPC4. Kind of data set: Antiproliferative activity against human LAPC4 cells assessed as inhibition of cell proliferation measured after 72 hrs by MTT assay. It counts as functional, cell-based.
Data set [13] concerns RPTEC. Put plainly: Cytotoxicity against human RPTEC cells assessed as inhibition of cell proliferation measured after 72 hrs by MTT assay. It is filed as cell-based.
The subject of data set [14] is PC-3. Kind of data set: Induction of apoptosis in human PC-3 cells assessed as increase in Caspase-3 activity using Z-Asp-Glu-Val-Asp-AMC peptide as substrate at 10 uM measured after 24 to 48 hrs by based flourimetric assay. The note with it: time 24-48 hrs. It is filed as functional, cell-based.
Data set [15] has as its system PC-3. Kind of data set: Antitumour activity against human PC-3 cells xenografted in chick chorioallantoic membrane assessed as inhibition of tumour growth at 10 ug, iv measured after 7 days. It counts as functional. Conditions: dose 10 µg; time 7 day. In general terms: A xenograft is tissue or cells of one species grown in another, often human tumour cells in immunodeficient mice.

The subject of data set [16] is PC-3. Kind of data set: Antitumour activity against human PC-3 cells xenografted in chick chorioallantoic membrane assessed as inhibition of tumour growth at 50 ug, iv measured after 7 days. It counts as functional. Conditions: dose 50 µg; time 7 day.
Data set [17] is described as follows: Toxicity in chick embryo assessed as embryo weight at 10 to 50 ug, iv measured after 7 days. It is filed as organism-based, Gallus gallus. The note with it: chicken, in vivo, 168 h, dose 10-50 µg, time 7 day.
Data set [18] has as its system PC-3. Put plainly: Antiproliferative activity against human PC3 cells assessed as inhibition of cell proliferation at 15 uM measured after 48 hrs by MTT assay. It counts as functional, cell-based.

Active and inactive are the calls of the source. No cut-off for these calls is given here.

Usually GI50 stands for the concentration that inhibits growth by half. Take `CC(C)(C)NC(=O)[C@H]1c2cc([N+](=O)[O-])ccc2N[C@@H](Cc2ccccc2)C(=O)N1Cc1ccccc1`: the 50% growth inhibitory concentration (GI50) in [1] was determined as 10.8 µM. Also, the metabolised at 0.25 h, 10 µM in data set [2] came to 26%. Also, in data set [3], the metabolised at 0.5 h, 10 µM is 41%.

Take `CC(C)(C)NC(=O)[C@@H]1c2cc([N+](=O)[O-])ccc2N[C@@H](Cc2ccccc2)C(=O)N1Cc1ccccc1`: the GI50 in [1] is 7 µM. Further, the metabolised at 0.25 h, 10 µM in data set [2] stood at 41%. For the same molecule, the metabolised at 0.5 h, 10 µM in [3] came out at 50%.

For orientation: TGI means how far tumour growth fell short of that in controls. For the molecule `CC(C)(C)NC(=O)C1c2cc([N+](=O)[O-])ccc2N[C@@H](Cc2ccccc2)C(=O)N1Cc1ccccc1` (mixture of isomers), the outcome in [4], in [5], in [6], in [8], in data set [10] and in data set [11] was inactive. In addition, the outcome in [12] was inactive. Further, the result in data set [7] and in [14] was Active. Also, the Activity is on record as 30% in data set [9], “Non-Toxic” in data set [13] and “Non-Toxic” in data set [17]. Moreover, the GI50 in [1] was determined as 10.2 µM. In addition, the results for the TGI in data set [15] and in data set [16] were 45% and 53%, respectively.

On to `CC(C)C[C@@H]1Nc2ccc([N+](=O)[O-])cc2C(C(=O)NC(C)(C)C)N(Cc2ccc3c(c2)OCO3)C1=O` (mixture of isomers), for which the result in [4], in [5], in data set [6] and in data set [8] was inactive. The result in [7] and in [18] was Active.

In the case of `CC(C)C[C@@H]1Nc2ccc([N+](=O)[O-])cc2C(C(=O)NC(C)(C)C)N(Cc2ccccc2)C1=O` (mixture of isomers), the result in data set [4], in data set [5], in [6] and in data set [8] was inactive. The result in data set [7] and in [18] was Active.

The record behind these values is ChEMBL document CHEMBL4834478, “Synthesis and biological evaluation of novel 1,4-benzodiazepin-3-one derivatives as potential antitumor agents against prostate cancer” (Bioorg Med Chem, 2021).
